Measured values as given in patent US9683014B2, “Dipeptide mimetics of NGF and BDNF neurotrophins” (UCHREZHDENIE ROSSIISKOI AKADEMII MEDITSYNSKIKH NAUK …, priority 2009, dated 2017).
Where “and” joins values, the source holds several entries; their conditions need not be identical. Identical values can stand only once. Like-named read-outs stand apart in the source and are kept apart here. Marks after values point to notes of the source that are not given here.

Tests used:
[1] = system: HT-22 cells; assay: Oxidative stress (H2O2) model in cultured HT-22 cells (MTT test); format: cell-based, mouse
Method: To induce an oxidative stress, the cells were placed in a growth medium containing 5% FBS, then a freshly prepared H2O2 solution was added to a final concentration of 1.5 mM and incubated for 30 min at 37° C. and 5% CO2. Thereafter, the medium was replaced with a new one and the cells were cultured for 4 h under the same conditions.
The determination of cell viability was carried out by MTT test. […] At the end of an experiment the growth medium was replaced with an MTT solution (0.5 mg/ml) and incubated for 30 min at 37° C. and 5% CO2. The MTT solution was then removed from the wells and DMSO was added to dissolve the formazan precipitate. Then the optical density was measured using a Multiscan (Thermo) spectrophotometer at a wavelength of 600 nm.

[2] = system: C57B1/6 mice; conditions: 1.0 mg/kg i.p. 24 h prior to MPTP 30 mg/kg i.p.; 60 min after MPTP; active control 8
Method: The test compound was administered intraperitoneally to male C57B1/6 mice weighing 22-25 g at a preselected dose of 1.0 mg/kg at 24 hours prior to the MPTP injection (30 mg/kg i.p.). The animals were placed in the open-field device 60 min after the MPTP injection. Animal's horizontal and vertical motor activities were monitored for 2 minutes. Passive control group was represented by animals treated with distilled water instead of MPTP. […] The treatment group was treated with GK-2 followed by MPTP. Statistical data treatment was carried out using the Mann-Whitney U-test.

[3] = system: Wistar rats; conditions: 1 mg/kg i.p. x7
Method: The experiments were carried out on male Wistar rats weighing 280-400 g. Animals were anesthetized and scalped followed by being placed in the stereotaxis device. A skewed incision was made in the skull 1 mm wide: the start point for incision was at the level of bregma (AP=0.0) and 2 mm lateral of it (L=±2); the end point for incision was 2 mm caudal of bregma and 1 mm lateral of it (AP=2.0, L=±1). Following the sawing of the skull bone, the dura mater was incised carefully in the sawcut area. A sterile curved needle was inserted into the incision to a depth of 6.2 mm from the bone surface (DV=−6.2). By the simultaneous use of two screws in the stereotaxis device, the needle was moved slowly almost to the end point of the skewed incision. Then the needle was lifted slowly from the incision. The procedure was repeated twice on each hemisphere. Sham operation was similar to the transection procedure except that the needle was inserted to a depth of 3 mm from the bone surface (DV=−3.0). The first injection of the test compound (1 mg/kg i.p.) in the treatment group or of distilled water in the control group was made 2 hours after the transection. Further injections were made every 48 hours. In the course of the experiment each animal received 7 injections of the test compound.
To detect behavioral abnormalities induced by the transection of the septo-hippocampal pathway, the open-field test was used. The choice of this test was based on the following studies: 1) Lamprea M. R., Cardenas F. P., Silveira R., Walsh T. J., Morato S. Effects of septal cholinergic lesion on rat exploratory behavior in an open-field. Braz. J. Med. Biol. Res. 2003, 36(2), 233-238; 2) Cassel J. S., Kelche C., Peterson G. M., Ballough G. P., Goepp I., Will B. Graft-induced behavioral recovery from subcallosal septohippocampal damage in rats depends on maturity stage of donor tissue. Neuroscience, 1991, 45(3), 571-586. Animals were tested in the open-field device 48 hours after the last injection of the test compound (at 14 days after surgery). Differences between experimental groups were assessed according to the Wilcoxon paired test. The data are expressed as the median values for the respective samples.

NCCCC[C@H](NC(=O)[C@H](CCC(=O)O)NC(=O)CCC(=O)O)C(=O)NCCCCCCNC(=O)[C@H](CCCCN)NC(=O)[C@H](CCC(=O)O)NC(=O)CCC(=O)O [GK-2, bis-(N-monosuccinyl-glutamyl-lysine) hexamethylenediamide]
Optical density (MTT) [1]: 0.324 ± 0.070^ and 0.345 ± 0.065^ | effect when added immediately after the oxidative stress exposure ([1]; 10^−8 M to 10^−5 M): therapeutic effect | Optical density (MTT) ([1]; Table 1.4, 10^−5M, 24 h before H2O2, control 0.427 ± 0.071, H2O2 0.350 ± 0.052): 0.422 ± 0.063^ | Optical density (MTT) ([1]; Table 1.4, 10^−8M, 24 h before H2O2, control 0.427 ± 0.071, H2O2 0.350 ± 0.052): 0.501 ± 0.109^ | Optical density (MTT) ([1]; Table 1.4, 10^−9M, 24 h before H2O2, control 0.427 ± 0.071, H2O2 0.350 ± 0.052): 0.516 ± 0.068^ | neuronal survival under oxidative stress ([1]; added 24 hours prior to the stress exposure, 10^−8 M to 10^−5 M): improved the neuronal survival | Number of sectors crossed (% of passive control) [2]: 38*^+ % of passive control | horizontal motor activity in the open-field test (median) ([3]; 1st minute, 14 days after surgery, transection 11.5, sham 21): 12.5 | horizontal motor activity in the open-field test (median) ([3]; 2nd minute, transection 12, sham 14): 11.5 | horizontal motor activity in the open-field test (median) ([3]; 3rd minute, transection 19, sham 9.5): 15.5 | horizontal motor activity in the open-field test (median) ([3]; 4th minute, transection 11.5, sham 9): 6.5*
